Measurements from patent publication US20190374618A1, “FIBRONECTIN OR ILK INHIBITORS FOR USE IN THE TREATMENT OF LEUKEMIA” (Chemotherapeutisches Forschungsinstitut Georg-Speyer-Haus, priority 2016, published 2019).

Key:
[1] = patients, cardiovascular toxicity reference; cited from earlier work
[2] = test system: BCR-ABL1^T315I+ CML; assay: intrafemoral co-injection of fibronectin with leukemia-initiating cells, retroviral transduction/transplantation model of CML; type: in vivo, mouse (Balb/c)
From the text: FIG. 7: White blood cell counts per μl in peripheral blood (a) and survival (b) of mice intravenously transplanted (no FN) or intrafemorally co-transplanted with BCR-ABL1 (gray colors)- or BCR-ABL1T315I (blue colors)-transduced bone marrow and vehicle or FN.
(§1) The inventors have shown by immunofluorescence (FIG. 5) and immunohistochemistry of bone sections of mice transplanted with empty vector-transduced cells, or mice with BCR-ABL1^WT+ or BCR-ABL1^T315I+ CML-like myeloproliferative neoplasia (FIG. 6), that BCR-ABL1^T315I+ cells deposit less fibronectin in their environment than BCR-ABL1^WT+ cells, which is likely also reflected by their differences in their interaction with the BMM.
(§2) Our retroviral stock was generated and bone marrow transplantation experiments were performed as described earlier (9, 14, 16). In general, we injected between 2.25 and 2.5×10^5 transduced cells into female irradiated (750 cGy) Balb/c recipient mice. The T315I point mutation in BCR-ABL1 was introduced by site-directed mutagenesis in the open reading frame of the MSCV IRES GFP vector.
(§3) Therapeutic application of fibronectin was performed as follows: intravenous application of 200 μg bovine fibronectin (in HBSS) on days 9, 10 and 12 post transplantation; for vehicle control treatments, 200 μl of HBSS (equal volume to fibronectin dose) was administered. […]

[3] = test system: BCR-ABL1^T315I+ CML; assay: intravenous fibronectin on days 9, 10 and 12 post transplantation, retroviral transduction/transplantation model of CML; type: in vivo, mouse (Balb/c); details: three intravenous injections on days 9, 10 and 12 post transplantation, BCR-ABL1T315I+ CML vs vehicle-treated mice, FIG. 8
From the text: FIG. 8: Kaplan-Meier survival curve of mice intravenously transplanted with BCR-ABL1 (gray colours) or BCR-ABL1T315I (blue colours)-transduced bone marrow treated with vehicle or FN on days 9, 10 and 12 after transplantation.
as §1, §2, §3

[4] = test system: LSC in CML; details: but not AML; cited from earlier work

For `Cc1ccc(C(=O)Nc2ccc(CN3CCN(C)CC3)c(C(F)(F)F)c2)cc1C#Cc1cnc2cccnn12` [ponatinib], the adverse events [1] is given as “frequently associated with severe adverse events”.

For `Cc1cn(-c2cc(NC(=O)c3ccc(C)c(Nc4nccc(-c5cccnc5)n4)c3)cc(C(F)(F)F)c2)cn1` [nilotinib], the adverse events [1] is given as “frequently associated with severe adverse events”.

In the case of “fibronectin: Murine fibronectin (Abcam ab92784) for intrafemoral injection; lyophilized bovine fibronectin (Thermo Fisher 33010018) for intravenous application”, the “tumor burden (white blood cell counts per μl in peripheral blood)” value ([2]; intrafemoral co-injection of fibronectin with BCR-ABL1WT+ or BCR-ABL1T315I+ leukemia-initiating cells vs vehicle, FIG. 7a) is reported as “significantly decreased the tumor burden”, the survival ([2]; recipients of BCR-ABL1T315I-transduced bone marrow, intrafemoral co-injection vs vehicle, FIG. 7b) is reported as “prolonged survival” and the survival [3] is reported as “significant prolongation of survival”.

In the case of `Cc1nc(Nc2ncc(C(=O)Nc3c(C)cccc3Cl)s2)cc(N2CCN(CCO)CC2)n1` [dasatinib], the adverse events [1] is listed as “frequently associated with severe adverse events”.

B1: parathyroid hormone: the most potent regulator of bone turnover (protein, UniProt P01270 32-115, looked up)
Parathyroid hormone: SVSEIQLMHNLGKHLNSMERVEWLRKKLQDVHNFVALGAPLAPRDAGSQRPRKKEDNVLVESHEKSLGEADKADVNVLTKAKSQ
modifications: Parathyroid hormone
In the case of B1, the LSC number [4] is listed as “reduction of LSC in CML”.
